{
  "source": "patent US8420569B2",
  "about": "“Pesticidal mixtures” (BASF SE, priority 2006, dated 2013)",
  "type_in_all_cases": "in vivo",
  "key": {"[1]": {"test_system": "boll weevil (Anthonomus grandis)", "experiment": "control of boll weevil, insect diet with eggs in 24-well microtiter plates", "settings": "sprayed onto insect diet, 5 days, egg and larval mortality", "procedure": "(§1) The analysis of synergism or antagonism between the mixtures or compositions was determined using Colbys equation.\nFor evaluating control of boll weevil (Anthonomus grandis) the test unit consisted of 24-well-microtiter plates containing an insect diet and 20-30 A. grandis eggs.\nThe compounds or mixtures were formulated using a solution containing 75% water and 25% DMSO. Different concentrations of formulated compounds or mixtures were sprayed onto the insect diet at 20 μl, using a custom built micro atomizer, at two replications.\n(§2) For experimental mixtures in these tests identical volumes of both mixing partners at the desired concentrations respectively, were mixed together.\nAfter application, microtiter plates were incubated at 23+1° C., 50+5% RH for 5 days. Egg and larval mortality was then visually assessed.\nIn this test the compound I-2 and N-[2-(1,1,2,3,3,3-hexafluoropropoxy)-phenyl]-3-difluoromethyl-1-methyl-1H-pyrazole-4-carboxamide (compound 3.1), and N-(3′,4′,5′-trifluorobiphenyl-2-yl)-1-methyl-3-difluoromethyl-1H-pyrazole-4-carboxamide (compound 3.2) were used."}, "[2]": {"test_system": "green peach aphid (Myzus persicae)", "experiment": "control of green peach aphid through systemic means, artificial diet under membrane in 96-well microtiter plates", "settings": "pipetted into aphid diet, 3 days, mortality and fecundity", "procedure": "as §1\nFor evaluating control of green peach aphid (Myzus persicae) through systemic means the test unit consisted of 96-well-microtiter plates containing liquid artificial diet under an artificial membrane.\nThe compounds or mixtures were formulated using a solution containing 75% water and 25% DMSO. Different concentrations of formulated compounds or mixtures were pipetted into the aphid diet, using a custom built pipetter, at two replications.\nas §2\nAfter application, 5 to 8 adult aphids were placed on the artificial membrane inside the microtiter plate wells. The aphids were then allowed to suck on the treated aphid diet and incubated at 23+1° C., 50+5% RH for 3 days. Aphid mortality and fecundity was then visually assessed.\nIn this test the compound 1-2, and 5-chloro-7-(4-methylpiperidin-1-yl)-6-(2,4,6-trifluoro-phenyl)-[1,2,4]triazolo[1,5-a]pyrimidine (compound 2.2) and N-[2-(1,1,2,3,3,3-hexa-fluoropropoxy)-phenyl]-3-difluoromethyl-1-methyl-1H-pyrazole-4-carboxamide (compound 3.1) were used."}, "[3]": {"test_system": "vetch aphid (Megoura viciae)", "experiment": "control of vetch aphid through contact or systemic means, broad bean leaf disks in 24-well microtiter plates", "settings": "sprayed on leaf disks, 5 days, mortality and fecundity", "procedure": "as §1\nFor evaluating control of vetch aphid (Megoura viciae) through contact or systemic means the test unit consisted of 24-well-microtiter plates containing broad bean leaf disks.\nThe compounds or mixtures were formulated using a solution containing 75% water and 25% DMSO. Different concentrations of formulated compounds or mixtures were sprayed onto the leaf disks at 2.5 μl, using a custom built micro atomizer, at two replications.\nas §2\nAfter application, the leaf disks were air-dried and 5-8 adult aphids placed on the leaf disks inside the microtiter plate wells. The aphids were then allowed to suck on the treated leaf disks and incubated at 23+1° C., 50+5% RH for 5 days. Aphid mortality and fecundity was then visually assessed.\nIn this test the compound 1-2, and N-(3′,4′-dichloro-5-fluorobiphenyl-2-yl)-3-difluoro-methyl-1-methylpyrazole-4-carboxamide (compound 2.1), and 5-chloro-7-(4-methyl-piperidin-1-yl)-6-(2,4,6-trifluorophenyl)-[1,2,4]triazolo[1,5-a]pyrimidine (compound 2.2) were used."}},
  "data": [
    {"smiles": "Cn1cc(C(=O)Nc2ccccc2-c2cc(F)c(F)c(F)c2)c(C(F)F)n1", "note": "[3.2, N-(3′,4′,5′-trifluorobiphenyl-2-yl)-1-methyl-3-difluoromethyl-1H-pyrazole-4-carboxamide]", "values": [
      {"measurement": "Average Control %", "setting": "[1]; 200 ppm", "result": 50, "unit": "%"}
    ]},
    {"smiles": "Cn1cc(C(=O)Nc2ccccc2OC(F)(F)C(F)C(F)(F)F)c(C(F)F)n1", "note": "(stereo not shown) [3.1, N-[2-(1,1,2,3,3,3-hexafluoropropoxy)-phenyl]-3-difluoromethyl-1-methyl-1H-pyrazole-4-carboxamide]", "values": [
      {"measurement": "Average Control %", "setting": "[2]; 1000 ppm", "result": 0, "unit": "%"},
      {"measurement": "Average Control %", "setting": "[1]; 40 ppm", "result": 0, "unit": "%"}
    ]},
    {"smiles": "CNC(=O)c1cc(C#N)cc(C)c1NC(=O)c1cc(Br)nn1-c1ncccc1Cl", "note": "[I-2]", "values": [
      {"measurement": "Average Control %", "setting": "[2]; 0.5 ppm", "result": 0, "unit": "%"},
      {"measurement": "Average Control %", "setting": "[3]; 0.5 ppm", "result": 0, "unit": "%"},
      {"measurement": "Average Control %", "setting": "[3]; 2.5 ppm", "result": 0, "unit": "%"},
      {"measurement": "Average Control %", "setting": "[1]; 0.5 ppm", "result": 0, "unit": "%"}
    ]},
    {"smiles": "CC1CCN(c2c(-c3c(F)cc(F)cc3F)c(Cl)nc3ncnn23)CC1", "note": "[2.2, 5-chloro-7-(4-methyl-piperidin-1-yl)-6-(2,4,6-trifluorophenyl)-[1,2,4]triazolo[1,5-a]pyrimidine]", "values": [
      {"measurement": "Average Control %", "setting": "[2]; 8 ppm", "result": 0, "unit": "%"},
      {"measurement": "Average Control %", "setting": "[3]; 40 ppm", "result": 0, "unit": "%"}
    ]},
    {"smiles": "Cn1cc(C(=O)Nc2ccc(F)cc2-c2ccc(Cl)c(Cl)c2)c(C(F)F)n1", "note": "[2.1, N-(3′,4′-dichloro-5-fluorobiphenyl-2-yl)-3-difluoro-methyl-1-methylpyrazole-4-carboxamide]", "values": [
      {"measurement": "Average Control %", "setting": "[3]; 1000 ppm", "result": 0, "unit": "%"}
    ]}
  ]
}
